Read-outs that look alike come from different tables or passages of the source.
How the values were obtained:
[1] = system: histamine-induced conjunctival vascular permeability; settings: topical drug administered 2 to 8 hours before subconjunctival histamine challenge; Evans blue dye i.v.; cited from earlier work
[2] = Ocular in vivo biodistribution, bilastine tissue concentration by LC-MS/MS; parameters: species or system Dutch Belted rabbits; settings: Dutch Belted, topical, 24 hours post-administration, rabbit, 30 μL of 0.6% w/v formulation in each eye, single occasion
Protocol: The aqueous ophthalmic formulations of bilastine were prepared at a bilastine concentration of 0.6% w/v. The excipients were as indicated above in Table 1, i.e., also comprised HPB 90 mg/mL, methylcellulose 0.1 mg/mL, sodium hyaluronate 1 mg/mL and glycerin 16.1 mg/mL.
42, 4-5 month-old Dutch Belted rabbits were selected as test subjects. The weight of the animals at treatment start was from 1.6 to 2.1 kg.
Animals received 30 μL of the ophthalmic formulation in each eye on a single occasion. The ophthalmic formulation was placed directly on both eyes of each animal by means of an automatic pipette. A new pipette tip was used for each eye.
The eyes of the test animals were not washed after instillation. Animals were weighed before administration and observed after administration to record any possible clinical sign.
Two to three animals were sacrificed at each time point (0.5, 1, 2, 4, 6, 8, 12 and 24 hours) and the following tissues from both eyes were collected: Aqueous humor, vitreous humor, cornea, conjunctiva, iris/ciliary body, crystalline lens and retina/choroid. Directly after sampling, all solid matrices were weighed (4 decimal precision) to determine the amount of each tissue collected.
Bilastine concentration was determined by LC-MS/MS.
Bilastine analyses were performed according to analytical methods: • PKH/MOA/1022 for rabbit plasma, • PKH/MOA/1042 for rabbit aqueous humor, • PKH/MOA/1043 for rabbit vitreous humor, • PKH/MOA/1028 for rabbit cornea homogenate, • PKH/MOA/1041 for rabbit iris/ciliary body homogenate, • PKH/MOA/1036 for rabbit conjunctiva homogenate, • PKH/MOA/1032 for rabbit crystalline lens homogenate, • PKH/MOA/1029 for rabbit retina/choroid homogenate, which were previously developed and validated at Eurofins|ADME BIOANALYSES according to the Guidance for Industry—Bioanalytical Method Validation—FDA May 2018 and EMA Guideline—EMEA/CHMP/EWP/192217/2009—21 Jul. 2011, in the studies 18-014A to 18-014H.
The analytical methods involved protein precipitation for plasma and involved dilution for other matrices followed by LC-MS/MS analysis using F21201RR (Bilastine-d6) as internal standard.

- concentration at 24 h ([2]; conjunctiva, read-out: bilastine concentration in conjunctiva (mean value)): 388 ng/g
- concentration at 24 h ([2]; cornea, read-out: bilastine concentration in cornea (mean value)): 28.7 ng/g
- concentration at 24 h ([2]; crystalline lens, read-out: bilastine concentration in crystalline lens): 0.12 ng/g
- concentration at 24 h ([2]; iris/ciliary body, read-out: bilastine concentration in iris/ciliary body): 12.4 ng/g
- concentration at 24 h ([2]; retina/choroid, read-out: bilastine concentration in retina/choroid): 1.91 ng/g
Structure (SMILES): CCOCCn1c(C2CCN(CCc3ccc(C(C)(C)C(=O)O)cc3)CC2)nc2ccccc21 [bilastine, 2-[4-(2-{4-[1-(2-Ethoxyethyl)-1H-benzimidazol-2-yl]-1-piperidinyl}ethyl)phenyl]-2-methylpropanoic acid]
- ED50 (in vivo anti-histaminic activity) [1]: 50% efficacy was not achieved
